Experimental data from EP0256909B1, “N,N-bis-(4-fluorophenyl) carbamoyl acetohydroxamic acid and pharmaceutical composition containing it” (priority 1986, dated 1988).
“Also recorded” adds a separate entry of the source.

Columns and labels:
[1] = Solubility of the powder in solvents; format: physicochemical
[2] = tested on: souris; assay: Global behaviour and reactivities, mouse; format: in vivo
Method: (§1) Des lots de 3 animaux sont observés avant, puis 15 min, 30 min, 1 h, 2 h, 3 h et 24 h après l'administration de CRL 41131.

[3] = tested on: souris; assay: Motility reduced by habituation to the enclosure; format: in vivo; conditions: 32, 128 et 512 mg/kg i.p.
Method: Après 18 h de séjour dans les actimètres, les souris (6 par dose, 12 témoins) reçoivent le CRL 41131. Elles sont aussitôt replacées dans leurs enceintes respectives et, 30 min plus tard, on enregistre leur motilité pendant 30 min.

[4] = tested on: souris; assay: Four plates test; format: in vivo; conditions: mouse, 30 min after i.p. administration
Method: (§2) Le CRL 41131, en suspension dans une solution de gomme arabique à 5%, a été administré par voie intrapéritonéale sous un volume de 20 ml/kg chez la souris (mâle, NMRI, Evic Ceba) et de 5 ml/kg chez le rat (mâle, CD1, Sprague Dawley, Charles River).
(§3) Le test est pratiqué sur des lots de 10 souris, 30 min après l'administration de CRL 41131.

[5] = tested on: rat; assay: Interaction with amphetamine; format: in vivo
[6] = tested on: souris; assay: Interaction with reserpine; format: in vivo; conditions: 128 et 512 mg/kg i.p., mouse, 4 h after reserpine 2,5 mg/kg i.p.
Method: Quatre heures après l'injection intrapéritonéale de 2,5 mg/kg de réserpine, des lots de 6 souris reçoivent le CRL 41131.

[7] = tested on: souris; assay: Asphyxic anoxia (gallamine triethiodide); format: in vivo; conditions: i.p. 30 min before gallamine triethiodide 32 mg/kg i.p.
Method: Des lots de 10 souris reçoivent le CRL 41131 30 min avant l'administration intrapéritonéale de 32 mg/kg de triiodoéthylate de gallamine.

[8] = tested on: souris; assay: Behavioural despair (forced immersion); format: in vivo; conditions: 32, 128, 512 mg/kg i.p., 2nd to 6th minute
From the text: Trente min après avoir reçu le CRL 41131, des lots de 6 souris (mâles, CD1, Charles River) sont placés dans un bécher rempli d'eau sur une hauteur de 6 cm. On note la durée totale d'immobilité entre la deuxième et la sixième minute suivant l'immersion.

[9] = tested on: souris; assay: Spontaneous motility (actimeter); format: in vivo
Method: Après avoir reçu le CRL 41131, les souris (6 par dose, 12 témoins) sont placées en actimètre où leur motilité est enregistrée pendant 30 min.

[10] = tested on: rat; assay: Global behaviour and reactivities, rat; format: in vivo
Method: as §1

[11] = tested on: souris; assay: Pretoxicity (3 mice per dose); conditions: intraperitoneal, mouse
Method: as §2

[12] = tested on: souris; assay: Intergroup aggressiveness; format: in vivo
Method: Après avoir séjourné pendant 3 semaines dans chacune des moitiés d'une cage séparées par une cloison opaque, des groupes de 3 souris reçoivent le CRL 41131. Trente minutes plus tard, les deux groupes d'une même cage sont réunis par retrait de la cloison et on note le nombre de combats qui surviennent en 10 min.

[13] = tested on: souris; assay: Electroshock test; format: in vivo
[14] = tested on: souris; assay: Interaction with oxotremorine; format: in vivo; conditions: mouse, oxotremorine 0,5 mg/kg i.p.
Method: Le CRL 41131 est administré à des lots de 6 souris 30 min avant l'injection intrapéritonéale de 0,5 mg/kg d'oxotrémorine.

[15] = tested on: rat; assay: Search for stereotyped movements; format: in vivo; conditions: for mouvements stéréotypés (cotes): 22 h 30 min after administration, scored 0 to 3
Method: as §2

[16] = tested on: souris; assay: Interaction with apomorphine, mouse; format: in vivo; conditions: compound i.p. 30 min before s.c. apomorphine 1 or 16 mg/kg
Method: as §2
Des lots de 6 souris reçoivent le CRL 41 131 30 min avant l'injection sous-cutanée d'apomorphine, à la dose de 1 ou 16 mg/kg. • a) Apomorphine 1 mg/kg • b) Apomorphine 16 ma/ka

[17] = tested on: rat; assay: Interaction with apomorphine, rat; format: in vivo; conditions: 64 and above all 256 mg/kg i.p., 30 min before s.c. apomorphine 0,5 mg/kg
Method: as §2
Le CRL 41131 est administré à des lots de 6 rats 30 min avant l'injection sous-cutanée de 0,5 mg/kg d'apomorphine.

[18] = tested on: souris; assay: Motility reduced by hypoxic aggression; format: in vivo; conditions: 8, 32, above all 128 et 512 mg/kg i.p., after acute hypobaric anoxia
Method: Trente minutes après avoir reçu le CRL 41131, les souris (10 par dose, 20 témoins) sont soumises à une anoxie hypobare aiguë (dépression de 600 mmHg en 90 s, détente de 45 s), puis elles sont placées en actimètre où leur motilité est enregistrée pendant 10 min.

[19] = tested on: homme; assay: Use as stimulant antidepressant in man; format: in vivo; conditions: 2 to 3 tablets of 150 mg per day, oral route
[20] = tested on: souris; conditions: in vivo, ip
Method: as §2, §3

[21] = comparison section, no dose given

Structure (SMILES): O=C(CC(=O)N(c1ccc(F)cc1)c1ccc(F)cc1)NO [CRL 41131, acide N,N-bis-(4-fluorophényl) carbamoylacétohydroxamique]
- solubilité dans les alcools, l'acétone, l'acétate d'éthyle ([1]; alcohols, acetone, ethyl acetate): soluble
- solubilité dans l'éther ([1]; ether): peu soluble
- solubilité dans l'éther isopropylique ([1]; isopropyl ether): insoluble
- solubilité dans l'eau ([1]; water): insoluble
- Comportement global: excitation ([2]; 128 mg/kg i.p.): excitation (1/3) pendant 1 h
- Comportement global: excitation ([2]; 512 mg/kg i.p.): excitation (1/3 pendant 1 h, 2/3 entre 2 et 3 h, et 3/3 à 24 h)
- Comportement global et réactivités à 24 h ([2]; 512 mg/kg i.p., 24 h): mouvements d'apparence stéréotypée, augmentation de la réaction de peur et de la réactivité au toucher à 24 h
- Comportement, réactivités, variations du diamètre pupillaire et de la température ([2]; 8 et 32 mg/kg i.p.): comparables à ceux du lot témoin
- activité motrice chez la souris habituée à son enceinte [3]: reprise nette de l'activité motrice
- nombre de passages punis [4]: n'entraîne pas d'augmentation nette du nombre de passages punis
- stéréotypies amphétaminiques ([5]; 64 and above all 256 mg/kg i.p., rat, 30 min before amphetamine 2 mg/kg i.p.): potentialisation importante
- test à l'amphétamine: stéréotypies du rat [5, 21]: potentialise ces stéréotypies
- hypothermie réserpinique [6]: s'oppose tardivement (24 h)
- ptôsis réserpinique [6]: s'oppose tardivement (24 h)
- délai d'apparition des convulsions consécutives à une anoxie asphyxique [7]: ne modifie pratiquement pas
- durée de l'immobilité [8]: diminue la durée de l'immobilité
- durée de l'effet ([9]; 32 mg/kg i.p.): 4 h
- durée de l'effet ([9]; 128 mg/kg i.p.): 4 à 24 h
- durée de l'effet ([9]; 512 mg/kg i.p.): > 24 h
- hypermotilité ([9]; 512 mg/kg i.p. (highest dose), given 30 min before actimeter): l'hypermotilité est moins importante qu'à 128 mg/kg
- activité motrice spontanée ([9]; 8, 32, 128 et 512 mg/kg i.p., given 30 min before actimeter): augmente modérément l'activité motrice spontanée
- activité motrice spontanée ([9]; 128 et 512 mg/kg i.p., given 2 h before actimeter): cette augmentation est plus nette
- motilité spontanée ([9]; 128 et 512 mg/kg i.p., given 4 h before actimeter): augmente la motilité spontanée
- activité motrice spontanée ([9]; from 8 mg/kg i.p., given 2 h before actimeter): augmente l'activité motrice spontanée
- minimal effective dose ([9]; ip, mouse, i.p., overall conclusion, read-out: doses qui augmentent l'activité motrice spontanée): ≥ 32 mg/kg
- motilité spontanée ([9]; only 512 mg/kg i.p., given 24 h before actimeter): augmente modérément la motilité spontanée
- comportement: excitation, réaction de peur ([10]; 256 mg/kg i.p.): excitation et augmentation de la réaction de peur (entre 2 h et 24 h)
- stéréotypies, réactivité au toucher ([10]; 256 mg/kg i.p., 24 h): stéréotypies, augmentation de la réactivité au toucher en 24 h
- comportement et réactivités ([10]; 4, 16 et 64 mg/kg i.p.): pas de modification nette du comportement et des réactivités
- Prétoxicité: signes observés ([11]; 512 mg/kg): sédation, crampes abdominales, diminution de la fréquence respiratoire pendant 30 min, puis excitation. A 24 h : excitation et stéréotypies
- Prétoxicité: signes observés ([11]; 1024 mg/kg): sédation, crampes abdominales, diminution de la fréquence respiratoire pendant 30 min, puis excitation. A 24 h : excitation, stéréotypies et convulsions
- Prétoxicité: signes observés ([11]; 128 et 256 mg/kg): à partir de 30 min : excitation; à 24 h, l'excitation est encore présente, et présence de stéréotypies
- mortalité ([11]; 128 to 1024 mg/kg): Aucune mortalité
- nombre de combats ([12]; 512 mg/kg i.p. (highest dose used), 30 min before, fights in 10 min): diminue nettement le nombre de combats
- agressivité intergroupe des souris ([12]; 128 et 512 mg/kg, comparison section): diminution
- effets létaux de l'électrochoc ([13]; 32, 128 et 512 mg/kg i.p., mouse, 30 min after administration): aggrave modérément les effets létaux de l'électrochoc
- test à l'électrochoc [13, 21]: aggrave les effets létaux de l'électrochoc
- action hypothermisante de l'oxotrémorine (température) [14]: n'a pas d'effet; also recorded: ne modifie pas
- intensité des tremblements provoqués par l'oxotrémorine [14]: n'a pas d'effet; also recorded: ne modifie pas
- signes de stimulation cholinergique périphérique dus à l'oxotrémorine [14]: ne modifie pas
- mouvements stéréotypés (cotes) ([15]; 64 mg/kg i.p.): 1
- mouvements stéréotypés (cotes) ([15]; 128 mg/kg i.p.): 2
- mouvements stéréotypés (cotes) ([15]; 256 mg/kg i.p.): 3
- mouvements stéréotypés persistant pendant ([15]; 128 et 256 mg/kg i.p.): > 30 h
- mouvements stéréotypés ([15]; from the lowest dose used, 64 mg/kg i.p.): provoque l'apparition de mouvements stéréotypés
- action hypothermisante induite par l'apomorphine [16]: ne s'oppose pas
- comportements de verticalisation et de stéréotypies [16]: ne sont pas modifiés
- stéréotypies induites par l'apomorphine [17]: potentialisation
- récupération motrice [18]: amélioration de la récupération motrice
- résultats comme antidépresseur stimulant chez l'homme [19]: bons résultats comme antidépresseur stimulant
- incapacité motrice [20]: ne provoque pas l'incapacité motrice majeure
